# In PubChem BioAssay AID1259411 (Chemical Carcinogenesis Research Information System (CCRIS), 2018):
# Active and inactive are the calls of the source. No rule for the calls is given here.
# Test system: rodent carcinogenicity bioassays, tumor incidence
# Assay: CCRIS carcinogenicity studies
# Method in brief: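 Archive of carcinogenicity, mutagenicity, tumor promotion and tumor inhibition results drawn from journals, NCI reports and other sources, expert-reviewed; covers 1985-2011 and is no longer updated.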
compound,measurement,setting,value
ClC(Cl)Cl,carcinogen call,"Species: FISH, Strain/Sex: ORYZIPIAS LATIPES/FEMALE, Route: IMMERSION, Dose: 0, 0.017, 0.151, 1.463 MG/L AQUEOUS SOLUTION FOR 6 MO (STUDY DURATION: 6 MO), Dose: 0, 0.017, 0.151, 1.463 MG/L AQUEOUS SOLUTION FOR 6 MO (STUDY DURATION: 6 MO)",inactive; negative
same,carcinogen call,"Species: FISH, Strain/Sex: ORYZIPIAS LATIPES/FEMALE, Route: IMMERSION, Dose: 0, 0.017, 0.151, 1.463 MG/L AQUEOUS SOLUTION FOR 9 MO (STUDY DURATION: 9 MO), Dose: 0, 0.017, 0.151, 1.463 MG/L AQUEOUS SOLUTION FOR 9 MO (STUDY DURATION: 9 MO)",inactive; negative
same,carcinogen call,"Species: FISH, Strain/Sex: ORYZIPIAS LATIPES/MALE, Route: IMMERSION, Dose: 0, 0.017, 0.151, 1.463 MG/L AQUEOUS SOLUTION FOR 6 MO (STUDY DURATION: 6 MO), Dose: 0, 0.017, 0.151, 1.463 MG/L AQUEOUS SOLUTION FOR 6 MO (STUDY DURATION: 6 MO)",inactive; negative
same,carcinogen call,"Species: FISH, Strain/Sex: ORYZIPIAS LATIPES/MALE, Route: IMMERSION, Dose: 0, 0.017, 0.151, 1.463 MG/L AQUEOUS SOLUTION FOR 9 MO (STUDY DURATION: 9 MO), Dose: 0, 0.017, 0.151, 1.463 MG/L AQUEOUS SOLUTION FOR 9 MO (STUDY DURATION: 9 MO)",inactive; negative
same,carcinogen call,"Species: MOUSE, Strain/Sex: B6C3F1/FEMALE, Route: ORAL, Dose: 0, 200, 400, 900, 1800 MG/L IN DRINKING WATER FOR 104 WK (STUDY DURATION: 24 MO), Dose: 0, 200, 400, 900, 1800 MG/L IN DRINKING WATER FOR 104 WK (STUDY DURATION: 24 MO)",inactive; negative
same,carcinogen call,"Species: MOUSE, Strain/Sex: B6C3F1/FEMALE, Route: ORAL, Dose: 0, 200, 400, 900, 1800 ML/L IN DRINKING WATER FOR AN AVERAGE DOSE OF 0, 34, 65, 130, 263 MG/KG BW/D FOR 104 WK (STUDY DU, Dose: 0, 200, 400, 900, 1800 ML/L IN DRINKING WATER FOR AN AVERAGE DOSE OF 0, 34, 65, 130, 263 MG/KG BW/D FOR 104 WK (STUDY DU",inactive; negative
same,carcinogen call,"Species: MOUSE, Strain/Sex: B6C3F1/MALE,FEMALE, Route: GAVAGE, Tumor Site: Type of Lesion: LIVER: HEPATOCELLULAR CARCINOMA",active; positive
same,carcinogen call,"Species: MOUSE, Strain/Sex: BDF1/FEMALE, Route: INHALATION, Dose: 0, 5, 30, 90 PPM IN AIR, 6 HR/D, 5 D/WK FOR 104 WK (STUDY DURATION: 104 WK), Dose: 0, 5, 30, 90 PPM IN AIR, 6 HR/D, 5 D/WK FOR 104 WK (STUDY DURATION: 104 WK), Tumor Site: Type of Lesion: LIVER: HEPATOCELLULAR CARCINOMA, HEPATOCELLULAR CARCINOMA AND ADENOMA",active; positive
same,carcinogen call,"Species: MOUSE, Strain/Sex: BDF1/MALE, Route: INHALATION, Dose: 0, 5, 30, 90 PPM IN AIR, 6 HR/D, 5 D/WK FOR 104 WK (STUDY DURATION: 104 WK), Dose: 0, 5, 30, 90 PPM IN AIR, 6 HR/D, 5 D/WK FOR 104 WK (STUDY DURATION: 104 WK), Tumor Site: Type of Lesion: LIVER: HEPATOCELLULAR CARCINOMA, HEPATOCELLULAR CARCINOMA AND ADENOMA, KIDNEYS: RENAL CELL CARCINOMA, RENAL CELL ADENOMA",active; positive
same,carcinogen call,"Species: RAT, Strain/Sex: F344/DUCRJ/MALE, Route: INHALATION, Dose: 0;25, 50, 100 PPM VAPOR CHAMBER 6 HR/D, 5 D/WK FOR 104 WK (STUDY DURATION: 104 WK), Dose: 0;25, 50, 100 PPM VAPOR CHAMBER 6 HR/D, 5 D/WK FOR 104 WK (STUDY DURATION: 104 WK)",inactive; negative
same,carcinogen call,"Species: RAT, Strain/Sex: F344/DUCRJ/MALE, Route: ORAL AND INHALATION, Dose: 0, 1,000 PPM IN DRINKING WATER AND 0, 25, 50, 100 PPM VAPOR CHAMBER 6 HR/D, 5 D/WK , BOTH FOR 104 WK (STUDY DURATION: 10, Dose: 0, 1,000 PPM IN DRINKING WATER AND 0, 25, 50, 100 PPM VAPOR CHAMBER 6 HR/D, 5 D/WK , BOTH FOR 104 WK (STUDY DURATION: 10, Tumor Site: Type of Lesion: KIDNEY: ADENOMA, CARCINOMA, THYROID: ADENOMA, CARCINOMA",active; positive
same,carcinogen call,"Species: RAT, Strain/Sex: F344/DUCRJ/MALE, Route: ORAL, Dose: 0, 1,000 PPM IN DRINKING FOR 104 WK (STUDY DURATION: 104 WK)",inactive; negative
same,carcinogen call,"Species: RAT, Strain/Sex: F344/FEMALE, Route: INHALATION, Dose: 0, 10, 30, 90 PPM IN AIR, 6 HR/D, 5 D/WK FOR 104 WK (STUDY DURATION: 104 WK), Dose: 0, 10, 30, 90 PPM IN AIR, 6 HR/D, 5 D/WK FOR 104 WK (STUDY DURATION: 104 WK)",inactive; negative
same,carcinogen call,"Species: RAT, Strain/Sex: F344/MALE, Route: INHALATION, Dose: 0, 10, 30, 90 PPM IN AIR, 6 HR/D, 5 D/WK FOR 104 WK (STUDY DURATION: 104 WK), Dose: 0, 10, 30, 90 PPM IN AIR, 6 HR/D, 5 D/WK FOR 104 WK (STUDY DURATION: 104 WK)",inactive; negative
same,carcinogen call,"Species: RAT, Strain/Sex: OSBORNE-MENDEL/MALE, Route: GAVAGE, Tumor Site: Type of Lesion: KIDNEY: ADENOMA, CARCINOMA",active; positive
same,carcinogen call,"Species: RAT, Strain/Sex: OSBORNE-MENDEL/MALE, Route: ORAL, Dose: 0, 200, 400, 900, 1800 MG/L IN DRINKING WATER FOR 104 WK (STUDY DURATION: 24 MO), Dose: 0, 200, 400, 900, 1800 MG/L IN DRINKING WATER FOR 104 WK (STUDY DURATION: 24 MO), Tumor Site: Type of Lesion: KIDNEY: TUBULAR CELL CARCINOMA OR ADENOCARCINOMA, TUBULAR CELL CARCINOMA, ADRENAL GLAND: CORTICAL ADENOMA, PHEOCHROMOCYT",active; positive
same,carcinogen call,"Species: RAT, Strain/Sex: OSBORNE-MENDEL/MALE, Route: ORAL, Dose: 0, 200, 400, 900, 1800 ML/L IN DRINKING WATER FOR AN AVERAGE DOSE OF 0, 19, 38, 81, 160 MG/KG BW/D FOR 104 WK (STUDY DUR, Dose: 0, 200, 400, 900, 1800 ML/L IN DRINKING WATER FOR AN AVERAGE DOSE OF 0, 19, 38, 81, 160 MG/KG BW/D FOR 104 WK (STUDY DUR, Tumor Site: Type of Lesion: KIDNEY (TUBULAR CELL): ADENOMA OR ADENOCARCINOMA",active; positive
same,carcinogen call,"Species: RAT, Strain/Sex: WISTAR/FEMALE, Route: ORAL, Dose: 0, 2 ML/L (24 MILLIMOLAR) IN DRINKING WATER FOR 72 WK THEN DOSE HALVED FOR DURATION OF STUDY (STUDY DURATION: LIFETIME), Tumor Site: Type of Lesion: LIVER: NEOPLASTIC NODULES",active; positive
same,carcinogen call,"Species: RAT, Strain/Sex: WISTAR/MALE, Route: ORAL, Dose: 0, 2 ML/L (24 MILLIMOLAR) IN DRINKING WATER FOR 72 WK THEN DOSE HALVED FOR DURATION OF STUDY (STUDY DURATION: LIFETIME)",inactive; negative
same,carcinogen call,"Species: Rat, Strain/Sex: F344/DuCrj/ Male (50 per group), Route: Inhalation and oral (drinking water), Dose: 0, 25, 50, 100 ppm in air, 6 hr/d, 5 d/wk for 104 wk, each group also given chloroform-formulated drinking water (1000 p, Dose: 0, 25, 50, 100 ppm in air, 6 hr/d, 5 d/wk for 104 wk, each group also given chloroform-formulated drinking water (1000 p, Tumor Site: Type of Lesion: KIDNEY: renal-cell adenomas and carcinomas","active; positive, positive trend; significant increase in high dose group; exposure leve"
same,carcinogen call,"Species: Rat, Strain/Sex: F344/DuCrj/ Male (50 per group), Route: Inhalation, Dose: 0, 25, 50, 100 ppm in air, 6 hr/d, 5 d/wk for 104 wk, Dose: 0, 25, 50, 100 ppm in air, 6 hr/d, 5 d/wk for 104 wk, Tumor Site: Type of Lesion: KIDNEY: one renal-cell adenoma in the high dose group",inactive; negative
C#C[C@]1(O)CC[C@H]2[C@@H]3CCc4cc(O)ccc4[C@H]3[C@@H](OC)C[C@@]21C,carcinogen call,"Species: HAMSTER, Strain/Sex: SYRIAN/MALE, Route: SUBCUTANEOUS IMPLANT, Dose: 0, 20 MG IN PELLETS IMPLANTED EVERY 2.5 MO FOR 9 MO (STUDY DURATION: 9 MO), Tumor Site: Type of Lesion: KIDNEY: TUMOR",active; positive
CCCCNN,carcinogen call,"Species: MOUSE, Strain/Sex: SWISS/FEMALE, Route: ORAL, Dose: 0, 0.0125% SOLUTION IN DRINKING WATER DAILY FOR LIFE FOR AN AVERAGE DAILY INTAKE OF 0, 1.3 MG (STUDY DURATION: 130 WK), Dose: 0, 0.0125% SOLUTION IN DRINKING WATER DAILY FOR LIFE FOR AN AVERAGE DAILY INTAKE OF 0, 1.3 MG (STUDY DURATION: 130 WK), Tumor Site: Type of Lesion: LUNG: ADENOMA, LUNG: ADENOMA OR ADENOCARCINOMA",active; positive
same,carcinogen call,"Species: MOUSE, Strain/Sex: SWISS/MALE, Route: ORAL, Dose: 0, 0.0125% SOLUTION IN DRINKING WATER DAILY FOR LIFE FOR AN AVERAGE DAILY INTAKE OF 0, 2.1 MG (STUDY DURATION: 130 WK), Dose: 0, 0.0125% SOLUTION IN DRINKING WATER DAILY FOR LIFE FOR AN AVERAGE DAILY INTAKE OF 0, 2.1 MG (STUDY DURATION: 130 WK), Tumor Site: Type of Lesion: LUNG: ADENOMA, LUNG: ADENOMA OR ADENOCARCINOMA",active; positive
